Where “and” joins values, the source holds several entries; their conditions need not be identical. Identical values can stand only once.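 All cell lines were grown in 96-well plates and treated with compound for 48 hours. At the GI50, growth is halved. TGI marks complete inhibition of growth.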
Experiments:
Test in all cases: inhibition of tumour cell growth, NCI panel, 48 h
CCRF-CEM leukemia = system: CCRF-CEM leukemia
M14 melanoma = system: M14 melanoma
CAKI-1 renal = system: CAKI-1 renal
HL-60(TB) leukemia = system: HL-60(TB) leukemia
EKVX NSCLC = system: EKVX NSCLC
HCT-15 colon = system: HCT-15 colon
OVCAR-4 ovarian = system: OVCAR-4 ovarian
SW-620 colon = system: SW-620 colon
KM12 colon = system: KM12 colon
HOP-62 NSCLC = system: HOP-62 NSCLC

Row | Compound | TGI (CCRF-CEM leukemia) [µM] | GI50 (M14 melanoma) | TGI (M14 melanoma) | TGI (CAKI-1 renal) | GI50 (HL-60(TB) leukemia) | TGI (HL-60(TB) leukemia) [µM] | GI50 (EKVX NSCLC) | TGI (EKVX NSCLC) | GI50 (HCT-15 colon) | TGI (HCT-15 colon) | GI50 (OVCAR-4 ovarian) | TGI (OVCAR-4 ovarian) | GI50 (SW-620 colon) | TGI (SW-620 colon) | GI50 (KM12 colon) | TGI (KM12 colon) | GI50 (HOP-62 NSCLC) | TGI (HOP-62 NSCLC) | GI50 (CCRF-CEM leukemia) [µM] | GI50 (CAKI-1 renal) [µM]
1 | O=C1C=CC2(C=C1)CCN=c1c(O)c3c(c(O)c12)=NC=N3 | > 100 | 11.3 µM and > 100 µM | 23.7 µM and > 100 µM | 27.5 µM and > 100 µM | 8.02 µM and 59.9 µM | > 100 | 17 µM and > 100 µM | 31.7 µM and > 100 µM | 14.5 µM and > 100 µM | 29.9 µM and > 100 µM | 15.9 µM and > 100 µM | 29.7 µM and > 100 µM | 10.1 µM and > 100 µM | 32.2 µM and > 100 µM | 14.4 µM and > 100 µM | 29.1 µM and > 100 µM | 16.3 µM and > 100 µM | 30.3 µM and > 100 µM |  | 
2 | CCOC(=O)/C=C1\Nc2ccccc2-n2nnnc21 | > 100 |  | > 100 µM | > 100 µM |  | > 100 |  | > 100 µM |  | > 100 µM |  | > 100 µM |  | 58.6 µM |  | > 100 µM |  | > 100 µM |  | 
3 | O=C(Nc1ccc(Br)c(Cl)c1)c1cc(F)ccc1O | > 15.1 | 0.585 µM | 3.1 µM | 3.46 µM | 0.97 µM | 2.83 | 0.77 µM | 10 µM | 0.888 µM | 6.66 µM | 0.974 µM | > 50 µM | 1.2 µM | 9.67 µM | 1.36 µM | 5.23 µM | 0.893 µM | > 13.2 µM | 1.43 | 0.826
4 | CC/C(=C(\CC)c1ccc(OCCN(CC)CC)cc1)c1ccc(OCCN(CC)CC)cc1 | 25 | 0.771 µM | 2.27 µM | 15.7 µM | 3.8 µM | 9.84 | 4.02 µM | 20.4 µM | 1.74 µM | 11.2 µM | 3.13 µM | 12.3 µM | 2.33 µM | 7.79 µM | 2.01 µM | 12.6 µM | 1.73 µM | 4.76 µM | 2.51 | 3.17
5 | CC[C@H](C)C(=O)O[C@H]1CCC=C2C=C[C@H](C)C(CCC3C[C@@H](O)CC(=O)O3)[C@H]21 (some centres not stated) | > 100 |  | > 100 µM | 4.96 µM | 11.7 µM | 52.9 | 12.5 µM | > 100 µM | 4.83 µM | > 100 µM | 22.7 µM | > 100 µM | 12 µM | > 100 µM | 45.6 µM | > 100 µM | 18.1 µM | > 100 µM | > 100 | 1.76
6 | CCC(=C(c1ccc(OCc2ccccc2)cc1)c1ccc(OCc2ccccc2)cc1)c1ccc(OC)cc1 | > 100 |  | > 100 µM | > 100 µM |  | > 100 |  | > 100 µM |  | > 100 µM |  | > 100 µM |  | > 100 µM |  | > 100 µM |  | > 100 µM |  | 
7 | CCCC(=O)NNc1[nH]c(-c2ccc(OC)cc2)cc1C(=O)OCC | > 100 | 20.4 µM | 39.7 µM | 25.7 µM | 3.1 µM | 93.2 | 16.9 µM | 32.7 µM | 9.47 µM | 21.3 µM | 17.1 µM | 32.3 µM | 3.54 µM | 12.6 µM | 37.7 µM | > 100 µM | > 100 µM | > 100 µM | 2.82 | 12.5

— PubChem BioAssay (NCI)
